Measurements reported in patent publication US7402548B2, “Benzoxazole compounds, process for producing the same and herbicides” (Kyoyu Agri Co., Ltd., priority 2000, dated 2008).

Key:
annual bluegrass [1] = test: Soil treatment test for upland field; format: in vivo, Poa annua; design: key: 0 = normal development, 5 = all killed; settings: 500 g/ha, 3 weeks, glass house 25° C.
Outline: (§1)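 Seeds were sown in alluvial soil in pots, and a wettable powder diluted in water with 0.05% surfactant was sprayed evenly on the soil surface at 500 g/ha. Plants were kept in a glass house at about 25° C for 3 weeks, then damage was scored 0–5 against untreated controls.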

barnyard grass [2] = test: Soil treatment test for upland field; format: in vivo, Eschinochloa crusgalli; design: key: 0 = normal development, 5 = all killed; settings: 500 g/ha, 3 weeks, glass house 25° C.
Outline: as §1

livid amaranth [3] = test: Soil treatment test for upland field; format: in vivo, Amaranthus lividus; design: key: 0 = normal development, 5 = all killed; settings: 500 g/ha, 3 weeks, glass house 25° C.
Outline: as §1

green foxtail [4] = test: Foliar spread test for upland field; format: in vivo, Setaria viridis; design: key: 0 = normal development, 5 = all killed (6 ranks vs. untreated); settings: foliar spray, 500 ppm, 3 weeks, glass house 25° C.
Outline: (§2)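 Seeds were sown in volcanic ash soil in Wagner pots and grown about 2 weeks in a glass house at an average 25° C. Wettable-powder formulations diluted to 500 ppm in water with 0.5% surfactant were sprayed uniformly over the plants. After 3 further weeks at 25° C, damage was scored 0 (normal) to 5 (all killed) against untreated plants.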

barnyard grass [5] = test: Herbicidal test for paddy field; format: in vivo, Eschinochloa crusgalli; settings: 500 g/ha, dropwise addition to paddy water at 1.5 leaf stage of barnyard grass; glass house 25° C., 3 weeks; rank 0-5 vs non-treated district
Outline: (§3)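 Wettable-powder formulations in water with 0.05% surfactant were dripped onto flooded (3 cm) Ube alluvial-soil pots at 500 g/ha, applied at barnyard grass 1.5-leaf stage. Plants were kept in a glasshouse at 25° C. for 3 weeks. Damage was scored 0 (normal) to 5 (all killed) versus untreated plants.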

Large crabgrass [6] = test: Foliar spread test for upland field; format: in vivo, Digitaria adscendens; design: key: 0 = normal development, 5 = all killed (6 ranks vs. untreated); settings: foliar spray, 500 ppm, 3 weeks, glass house 25° C.
Outline: as §2

green foxtail [7] = test: Soil treatment test for upland field; format: in vivo, Setaria viridis; design: key: 0 = normal development, 5 = all killed; settings: 500 g/ha, 3 weeks, glass house 25° C.
Outline: as §1

common lambsquarters [8] = test: Soil treatment test for upland field; format: in vivo, Chenopodium album; design: key: 0 = normal development, 5 = all killed; settings: 500 g/ha, 3 weeks, glass house 25° C.
Outline: as §1

Large crabgrass [9] = test: Soil treatment test for upland field; format: in vivo, Digitaria adscendens; design: key: 0 = normal development, 5 = all killed; settings: 500 g/ha, 3 weeks, glass house 25° C.
Outline: as §1

livid amaranth [10] = test: Foliar spread test for upland field; format: in vivo, Amaranthus lividus; design: key: 0 = normal development, 5 = all killed (6 ranks vs. untreated); settings: foliar spray, 500 ppm, 3 weeks, glass house 25° C.
Outline: as §2

wheat [11] = test: Foliar spread test for upland field; format: in vivo; design: key: 0 = normal development, 5 = all killed (6 ranks vs. untreated); settings: foliar spray, 500 ppm, 3 weeks, glass house 25° C.
Outline: as §2

soybean [12] = test: Soil treatment test for upland field; format: in vivo; design: key: 0 = normal development, 5 = all killed; settings: 500 g/ha, 3 weeks, glass house 25° C.
Outline: as §1

corn [13] = test: Soil treatment test for upland field; format: in vivo; design: key: 0 = normal development, 5 = all killed; settings: 500 g/ha, 3 weeks, glass house 25° C.
Outline: as §1

wheat [14] = test: Soil treatment test for upland field; format: in vivo; design: key: 0 = normal development, 5 = all killed; settings: 500 g/ha, 3 weeks, glass house 25° C.
Outline: as §1

common lambsquarters [15] = test: Foliar spread test for upland field; format: in vivo, Chenopodium album; design: key: 0 = normal development, 5 = all killed (6 ranks vs. untreated); settings: foliar spray, 500 ppm, 3 weeks, glass house 25° C.
Outline: as §2

monochoria = test: Herbicidal test for paddy field; format: in vivo, Monochoria vaginalis; settings: 500 g/ha, dropwise addition to paddy water at 1.5 leaf stage of barnyard grass; glass house 25° C., 3 weeks; rank 0-5 vs non-treated district
Experimental: (§4) Wagner pots, each having an area of 1/5000 are, were packed with Ube soil (alluvial soil) and planted with seeds or tubers of young rice plant, barnyard grass, bulrush, Cyperus serotinus Rottb., arrowhead and monochoria. Then, the pots were filled with water to a depth of 3 cm.
(§5) Each wettable powder of the desired Compounds (I) shown in Tables 1 to 21, 24, 25, 28 and 29 prepared in accordance with Example 2 was diluted with water containing a surfactant (0.05%) and subjected to dropwise addition treatment by using pipet so that an effective concentration of the compound (I) in each herbicide became 500 g/ha at 1.5 leaf stage of barnyard grass.
(§6) These plants were controlled in a glass house at an average temperature of 25° C. for 3 weeks, and then herbicidal effects thereof were investigated.
(§7) The herbicidal effects are evaluated according to the following 6 ranks as compared with non-treated district. (0: normal development, 1: Less damaged, 2: Slightly damaged, 3: Moderately damaged, 4: Severely damaged, 5: All killed). Incidentally, “-” in the column means not investigated.

corn [16] = test: Foliar spread test for upland field; format: in vivo; design: key: 0 = normal development, 5 = all killed (6 ranks vs. untreated); settings: foliar spray, 500 ppm, 3 weeks, glass house 25° C.
Outline: as §2

velvetleaf [17] = test: Soil treatment test for upland field; format: in vivo, Abutilon theophrasti; design: key: 0 = normal development, 5 = all killed; settings: 500 g/ha, 3 weeks, glass house 25° C.
Outline: as §1

morning glory [18] = test: Soil treatment test for upland field; format: in vivo, Ipomoea spps.; design: key: 0 = normal development, 5 = all killed; settings: 500 g/ha, 3 weeks, glass house 25° C.
Outline: as §1

barnyardgrjass = test: Foliar spread test for upland field; format: in vivo, Eschinochloa crusgalli; design: key: 0 = normal development, 5 = all killed (6 ranks vs. untreated); settings: foliar spray, 500 ppm, 3 weeks, glass house 25° C.
Outline: as §2

blackgrass [19] = test: Foliar spread test for upland field; format: in vivo, Alopecurus aegualis; design: key: 0 = normal development, 5 = all killed (6 ranks vs. untreated); settings: foliar spray, 500 ppm, 3 weeks, glass house 25° C.
Outline: as §2

morning glory [20] = test: Foliar spread test for upland field; format: in vivo, Ipomoea spps.; design: key: 0 = normal development, 5 = all killed (6 ranks vs. untreated); settings: foliar spray, 500 ppm, 3 weeks, glass house 25° C.
Outline: as §2

[21] = test system: common Cocklebur (Xanthium strumarium); test: Soil treatment test for upland field; format: in vivo; settings: 500 g/ha, 3 weeks, glass house 25° C.
Experimental: as §7
Wagner pots, each having an area of 1/5000 are, were packed with Ube soil (alluvial soil), and then each seed of corn, soybean, cotton, wheat, solgum, sugar beat, Large crabgrass, barnyard grass, green foxtail, blackgrass, annual bluegrass, common lambsquarters, livid amaranth, velvetleaf, morning glory, common Cocklebur (Xanthium strumarium) and sicklepod (Cassia obtusifolia) were planted and covered with soil.
Each wettable powder of the desired compounds (I) shown in Tables 1 to 21, 24, 25, 28 and 29 prepared in accordance with Example 2 was diluted with water containing a surfactant (0.05%) and uniformly sprayed on the surface of each soil so that an effective concentration of the compound (I) in each herbicide became 500 g/ha.
as §6
(§8) The herbicidal effects were evaluated according to the evaluation method described in the above (1).

Cassia obtusifolia = test: Foliar spread test for upland field; format: in vivo; design: key: 0 = normal development, 5 = all killed; settings: foliar spray, 500 ppm, 3 weeks, glass house 25° C.
Experimental: as §7
(§9) Wagner pots, each having an area of 1/5000 are, were packed with volcanic ash soil and then each seed of corn, soybean, cotton, wheat, solgum, sugar beat, Large crabgrass, barnyardgrjass, green foxtail, blackgrass, annual bluegrass, common lambsquarters, livid amaranth, velvetleaf, morning glory, Xanthium pensylvanicum and Cassia obtusifolia was planted, covered with soil and grown in a glass house at an average temperature of 25° C. for about 2 weeks.
(§10) Each wettable powder of the desired compounds (I) shown in Tables 1 to 21, 24, 25, 28 and 29 prepared in accordance with Example 2 was diluted to 500 ppm with water containing a surfactant (0.5%) and then uniformly sprayed on the above respective plants.
(§11) After these plants were controlled in a glass house at an average temperature of 25° C. for 3 weeks, the herbicidal effects thereof were investigated.
as §8

Xanthium pensylvanicum = test: Foliar spread test for upland field; format: in vivo; design: key: 0 = normal development, 5 = all killed; settings: foliar spray, 500 ppm, 3 weeks, glass house 25° C.
Experimental: as §7, §9, §10, §11, §8

bulrush = test: Herbicidal test for paddy field; format: in vivo, Scrips juncoides; settings: 500 g/ha, dropwise addition to paddy water at 1.5 leaf stage of barnyard grass; glass house 25° C., 3 weeks; rank 0-5 vs non-treated district
Outline: as §3

annual bluegrass [22] = test: Foliar spread test for upland field; format: in vivo, Poa annua; design: key: 0 = normal development, 5 = all killed (6 ranks vs. untreated); settings: foliar spray, 500 ppm, 3 weeks, glass house 25° C.
Outline: as §2

blackgrass [23] = test: Soil treatment test for upland field; format: in vivo, Alopecurus aegualis; design: key: 0 = normal development, 5 = all killed; settings: 500 g/ha, 3 weeks, glass house 25° C.
Outline: as §1

solgum [24] = test: Foliar spread test for upland field; format: in vivo; design: key: 0 = normal development, 5 = all killed (6 ranks vs. untreated); settings: foliar spray, 500 ppm, 3 weeks, glass house 25° C.
Outline: as §2

cotton = test: Foliar spread test for upland field; format: in vivo; design: key: 0 = normal development, 5 = all killed (6 ranks vs. untreated); settings: foliar spray, 500 ppm, 3 weeks, glass house 25° C.
Outline: as §2

soybean [25] = test: Foliar spread test for upland field; format: in vivo; design: key: 0 = normal development, 5 = all killed (6 ranks vs. untreated); settings: foliar spray, 500 ppm, 3 weeks, glass house 25° C.
Outline: as §2

sugar beat [26] = test: Foliar spread test for upland field; format: in vivo; design: key: 0 = normal development, 5 = all killed (6 ranks vs. untreated); settings: foliar spray, 500 ppm, 3 weeks, glass house 25° C.
Outline: as §2

solgum [27] = test: Soil treatment test for upland field; format: in vivo; design: key: 0 = normal development, 5 = all killed; settings: 500 g/ha, 3 weeks, glass house 25° C.
Outline: as §1

sugar beat [28] = test: Soil treatment test for upland field; format: in vivo; design: key: 0 = normal development, 5 = all killed; settings: 500 g/ha, 3 weeks, glass house 25° C.
Outline: as §1

arrowhead = test: Herbicidal test for paddy field; format: in vivo, Sagittaria pygmaea; settings: 500 g/ha, dropwise addition to paddy water at 1.5 leaf stage of barnyard grass; glass house 25° C., 3 weeks; rank 0-5 vs non-treated district
Experimental: as §4, §5, §6, §7

velvetleaf [29] = test: Foliar spread test for upland field; format: in vivo, Abutilon theophrasti; design: key: 0 = normal development, 5 = all killed (6 ranks vs. untreated); settings: foliar spray, 500 ppm, 3 weeks, glass house 25° C.
Outline: as §2

Cyperus serotinus Rottb. = test: Herbicidal test for paddy field; format: in vivo; settings: 500 g/ha, dropwise addition to paddy water at 1.5 leaf stage of barnyard grass; glass house 25° C., 3 weeks; rank 0-5 vs non-treated district
Experimental: as §4, §5, §6, §7

Row | SMILES | Effects Annual bluegrass (annual bluegrass [1]) | Effects Barnyardgrass (barnyard grass [2]) | Effects Livid amaranth (livid amaranth [3]) | Effects Green foxtail (green foxtail [4]) | Effects Barnyardgrass (barnyard grass [5]) | Effects Large crabgrass (Large crabgrass [6]) | Effects Green foxtail (green foxtail [7]) | Effects Common lambsquarters (common lambsquarters [8]) | Effects Large crabgrass (Large crabgrass [9]) | Effects Livid amaranth (livid amaranth [10]) | Effects Wheat (wheat [11]) | Effects Soybean (soybean [12]) | Effects Corn (corn [13]) | Effects Wheat (wheat [14]) | Effects Common lambsquarters (common lambsquarters [15]) | Effects Monochoria (monochoria) | Effects Corn (corn [16]) | further results
1 | CCC(Oc1cc(C(F)(F)F)nn1C)c1nc2cc(C#N)c(F)cc2o1 (stereo not shown) [Compound 1-e-10] | 5 | 4 | 5 | 5 | 5 | 5 | 5 | 5 | 5 | 5 | 1 | 2 | 1 | 0 | 5 | 4 |  | 
2 | CCC(Sc1cc(C(F)(F)F)nn1C)c1nc2cc(Cl)ccc2o1 (stereo not shown) [Compound 1-e-12] | 4 | 3 | 4 |  |  |  | 2 | 3 | 5 |  |  | 0 | 0 | 0 |  | 5 |  | 
3 | CCC(Oc1cc(C(F)(F)F)no1)c1nc2cc(C#N)c(F)cc2o1 (stereo not shown) [Compound 1-e-28] | 5 | 4 | 5 | 4 | 5 | 4 | 5 | 5 | 5 | 5 | 2 | 1 | 0 | 0 | 5 | 5 | 2 | 
4 | CCCC(Oc1cc(C)nc(C#N)n1)c1nc2cc(C#N)ccc2o1 (stereo not shown) [Compound 1-e-70] |  |  | 5 |  |  |  |  | 3 | 2 |  |  | 0 | 0 | 0 |  | 3 |  | 
5 | FC(F)(F)c1cccc(Oc2cccc(-c3nc4cc(C(F)(F)F)ccc4o3)n2)c1 [I-a-13] | 5 | 4 | 5 | 5 | 2 | 3 | 5 | 5 | 5 | 5 | 2 |  | 1 | 1 | 5 |  | 2 | Effects Velvetleaf (velvetleaf [17]): 5; Effects Morning glory (morning glory [18]): 4; Effects Barnyardgrass (barnyardgrjass): 2; Effects Blackgrass (blackgrass [19]): 3; Effects Morning glory (morning glory [20]): 5; Effects Common Cocklebur [21]: 3; Effects Sicklepod (Cassia obtusifolia): 5; Effects Common Cocklebur (Xanthium pensylvanicum): 4; Effects Bulrush (bulrush): 0; Effects Annual bluegrass (annual bluegrass [22]): 4; Effects Blackgrass (blackgrass [23]): 4; Effects Solgum (solgum [24]): 2; Effects Sotton (cotton): 5; Effects Soybean (soybean [25]): 3; Effects Sugar beat (sugar beat [26]): 4; Effects Solgum (solgum [27]): 0; Effects Sugar beat (sugar beat [28]): 5; Effects Arrowhead (arrowhead): 1; Effects Velvetleaf (velvetleaf [29]): 4; Effects Cyperus serotinus Rottb. (Cyperus serotinus Rottb.): 0
